Series [1] has as its target T1, erbB1 (Homo sapiens, UniProt P00533). The experiment in a line: Isolated enzyme inhibition (Invitrogen Z′-LYTE kinase assay). It is filed as biochemical. The conditions noted are these: 10 μM ATP, duplicate.
In another series the target is erbB1^T790M (Homo sapiens, UniProt P00533, T790M). Described as above. The format is biochemical. Conditions: 10 μM ATP, duplicate.
The target in series [2] is T2, erbB2 (Homo sapiens, UniProt P04626). The series is described as above. The format is biochemical. Conditions: 10 μM ATP, duplicate. The protocol:
(§1) The compounds of Table 1 were tested for their ability to inhibit erbB1, erbB1^T790M, erbB2 and erbB4 in an isolated enzyme assay. This assay utilises synthetic FRET-capable peptide substrates. Phosphorylation of these substrates protects them from cleavage by a development reagent, leaving their FRET-capabilities intact. […] As a further consideration, for compounds capable of irreversible inhibition of an enzyme, the IC50 reflects both reversible and irreversible binding to the enzyme.

The target of a further series is erbB4 (Homo sapiens, UniProt Q15303). The series is described as above. It is filed as biochemical. Conditions: 10 μM ATP, duplicate. The method, then:
as §1

The target of series [3] is T1, erbB1. Put plainly: Cellular erbB1 inhibition under oxic and hypoxic conditions in A431 cells. It is filed as cell-based. Conditions: 1 μM, 4 hour exposure oxic or hypoxic, washed, EGF stimulated.
Description: Human A431 epidermoid carcinoma cells were seeded at 400,000 cells/well in a 6 well plate in alpha minimal essential media (αMEM) containing 10% fetal bovine serum, 10 mM D-Glucose and 0.2 mM 2′-deoxycytidine. A431 cells were allowed to attach for 90 minutes under oxic or anoxic conditions, then exposed to test compounds at a concentration of 1 uM for a further 4 hours under oxic or anoxic conditions. The cells were then washed free of test compounds three times using serum free media and then returned to the incubator under oxic conditions overnight. The cells were then stimulated with 100 ng/mL EGF for 15 minutes before the medium was aspirated and the cells were washed with ice-cold PBS.
The subject of the next series is SKBR3 cells. The experiment in a line: Cellular growth inhibition (sulforhodamine B). The format is cell-based, Human. Conditions: Table 3.
A further series has as its system SW620 cells. Put plainly: Cellular growth inhibition (sulforhodamine B). Conditions: Table 3. It is filed as cell-based, Human.
Series [4] in a line: Steady state radiolytic reduction by the CO2.− radical with HPLC-MS. The format is physicochemical. The conditions noted are these: for Effector release/Prodrug loss: 0.95 reducing equivalents; for Detection of MNA (methyl nitroaromatic) / release of effector following 1-electron reduction: HPLC-MS; for % Loss of prodrug / % Release of effector: HPLC-MS at 0.95 reducing equivalents; for release of effector following 1-electron reduction: steady state radiolysis.

A short description of series [5]: Pulse radiolysis (E(1) and fragmentation rate). It is filed as physicochemical. The conditions noted are these: for E (1)/V (one-electron reduction potential): determined against methylviologen.
In the next series the test system is A431 xenografts. The experiment in a line: In vivo efficacy in A431 xenografts. The conditions noted are these: A431 xenografts, q4dx3 at MTD, IP in lactate buffer. The method, then:
(§2) Specific pathogen-free homozygous female CD-1 nude mice (Charles River Laboratories, Wilmington, Mass.) were inoculated subcutaneously with a single cell suspension of A431 cells (5×10^6 cells/100 pt; right flank). When A431 tumour xenografts were established (typically 6-10 days) mice were randomized to treatment groups. All compounds were prepared in lactate buffer (pH4). Mice were dosed by intraperitoneal injection (0.01-0.03 ml/g) using the stated schedules and dose levels. Tumour size and body weights were measured at regular intervals. Tumour volume was calculated as π (length×width^2)/6. […] Differences in RTV^4 were tested for statistical difference by Mann Whitney U test using SigmaStat v3.5.

The subject of the next series is A431 cells. Put plainly: Cellular growth inhibition (sulforhodamine B).
The target of series [6] is T1, erbB1. The experiment in a line: Inhibition of erbB1 autophosphorylation in EGF-stimulated intact A431 cells (Western blot). A general note: In western blotting, separated proteins are transferred to a membrane and probed.
A further series relates to H1975 cells. The experiment in a line: Cellular growth inhibition (sulforhodamine B). The format is cell-based, Human. Conditions: Table 9; for IC50: Homo sapiens, NCI-H1975.
The subject of the next series is SKOV3 cells. Put plainly: Cellular growth inhibition (sulforhodamine B). Conditions: Table 9; for IC50: Homo sapiens, SK-OV-3. The format is cell-based, Human.
The subject of another series is SKOV3 xenografts. Put plainly: In vivo efficacy in SKOV3 xenografts. More on the design: species or system mice. The conditions noted are these: q3dx9, 100 (42) and 31.6 (161) μmol/kg/dose. The method, then: as §2, with “NIH-III” for “CD-1”, “SKOV3” for “A431”, “(1×10^7” for “(5×10^6”, “μL;” for “pt;”, “50-65” for “6-10”
as §2, with “NIH-III” for “CD-1”, “SKOV3” for “A431”, “(1×10^7” for “(5×10^6”, “μL;” for “pt;”, “50-65” for “6-10”, “Compounds 42 and 161” for “All compounds”

The test system of another series is H1975 xenografts. Put plainly: In vivo efficacy in H1975 xenografts. More on the design: species or system mice. The conditions noted are these: H1975 xenografts, equitoxic dose 133 (42) and 42.2 (161) μmol/kg/dose, q3dx4, IP. The method, then: Specific pathogen-free homozygous female NIH-III nude mice (Charles River Laboratories, Wilmington, Mass.) were inoculated subcutaneously with a single cell suspension of H1975 cells (5×10^6 cells/100 μL; right flank). When H1975 tumour xenografts were established (typically 8-12 days) mice were randomized to treatment groups. All compounds were prepared in lactate buffer (pH4). Mice were dosed by intraperitoneal injection (0.01-0.03 ml/g) using the stated schedules and dose levels. For growth delay experiments mice were randomized to treatment and tumor volume [π(length×width^2)/6] and body weight were measured daily following treatment. […] Differences in RTV^4 were tested for statistical difference by Mann Whitney U test using SigmaStat v3.5.

Series [7] in a line: Plasma and A431 tumour pharmacokinetics of compounds 42 and 161.
Series [8] concerns the target T2, erbB2. Put plainly: Inhibition of basal phospho-erbB2 in SKOV3 cells (Western blot). It is filed as cell-based. The arrangement: endogenous in cells; host or cells: SKOV3 human ovarian carcinoma cells. Conditions: SKOV3 cells; read-out: cellular erbB2 IC50. The text has this:
Values are plotted using SigmaPlot 10.

Series [9] deals with T1, erbB1. The experiment in a line: Cellular erbB1 inhibition: irreversibility wash-out assay in A431 cells. Conditions: 1 μM, 1 hour exposure, then EGF stimulation.
Setting [10] is: Homo sapiens, A-431, 24 h, read-out: Cellular Growth Inhibition IC50 A431 Oxic.

Experimental findings from US9073916B2, “Prodrug forms of kinase inhibitors and their use in therapy” (AUCKLAND UNISERVICES LIMITED, priority 2009, dated 2015) are described below.

Molecules are shown by their SMILES. Like-named read-outs stand apart in the source and are kept apart here.

T1 sequence (P00533 25-1210): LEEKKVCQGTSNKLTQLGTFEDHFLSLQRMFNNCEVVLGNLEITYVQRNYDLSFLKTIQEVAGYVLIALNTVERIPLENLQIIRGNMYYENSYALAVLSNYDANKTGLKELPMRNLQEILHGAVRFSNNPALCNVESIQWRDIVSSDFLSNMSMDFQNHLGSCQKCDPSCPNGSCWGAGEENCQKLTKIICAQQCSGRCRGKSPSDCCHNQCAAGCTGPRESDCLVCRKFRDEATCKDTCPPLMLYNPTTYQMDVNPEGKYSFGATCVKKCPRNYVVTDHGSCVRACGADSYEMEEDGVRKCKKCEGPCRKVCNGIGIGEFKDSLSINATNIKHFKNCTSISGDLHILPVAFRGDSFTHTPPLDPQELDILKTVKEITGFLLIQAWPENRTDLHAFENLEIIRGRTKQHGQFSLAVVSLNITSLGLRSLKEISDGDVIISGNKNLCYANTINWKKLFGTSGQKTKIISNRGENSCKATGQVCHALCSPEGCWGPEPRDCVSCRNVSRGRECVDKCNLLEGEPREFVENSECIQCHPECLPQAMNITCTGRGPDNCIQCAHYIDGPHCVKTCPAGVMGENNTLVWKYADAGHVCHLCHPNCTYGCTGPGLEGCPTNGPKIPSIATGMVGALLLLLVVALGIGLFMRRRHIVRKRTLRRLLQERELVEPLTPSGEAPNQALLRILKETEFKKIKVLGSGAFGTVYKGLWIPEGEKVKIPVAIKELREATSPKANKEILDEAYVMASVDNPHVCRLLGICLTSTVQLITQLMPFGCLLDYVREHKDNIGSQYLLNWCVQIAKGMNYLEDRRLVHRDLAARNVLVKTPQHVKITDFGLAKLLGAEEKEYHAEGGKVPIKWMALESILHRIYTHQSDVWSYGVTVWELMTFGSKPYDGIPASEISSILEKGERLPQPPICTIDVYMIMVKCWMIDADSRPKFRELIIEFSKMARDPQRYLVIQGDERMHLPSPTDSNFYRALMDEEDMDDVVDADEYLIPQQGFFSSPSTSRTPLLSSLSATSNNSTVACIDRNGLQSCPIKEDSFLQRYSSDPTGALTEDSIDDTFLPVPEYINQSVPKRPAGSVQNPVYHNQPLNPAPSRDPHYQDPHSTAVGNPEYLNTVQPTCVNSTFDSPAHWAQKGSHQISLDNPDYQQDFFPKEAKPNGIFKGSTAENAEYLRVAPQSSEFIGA
T2 sequence (P04626 23-1255): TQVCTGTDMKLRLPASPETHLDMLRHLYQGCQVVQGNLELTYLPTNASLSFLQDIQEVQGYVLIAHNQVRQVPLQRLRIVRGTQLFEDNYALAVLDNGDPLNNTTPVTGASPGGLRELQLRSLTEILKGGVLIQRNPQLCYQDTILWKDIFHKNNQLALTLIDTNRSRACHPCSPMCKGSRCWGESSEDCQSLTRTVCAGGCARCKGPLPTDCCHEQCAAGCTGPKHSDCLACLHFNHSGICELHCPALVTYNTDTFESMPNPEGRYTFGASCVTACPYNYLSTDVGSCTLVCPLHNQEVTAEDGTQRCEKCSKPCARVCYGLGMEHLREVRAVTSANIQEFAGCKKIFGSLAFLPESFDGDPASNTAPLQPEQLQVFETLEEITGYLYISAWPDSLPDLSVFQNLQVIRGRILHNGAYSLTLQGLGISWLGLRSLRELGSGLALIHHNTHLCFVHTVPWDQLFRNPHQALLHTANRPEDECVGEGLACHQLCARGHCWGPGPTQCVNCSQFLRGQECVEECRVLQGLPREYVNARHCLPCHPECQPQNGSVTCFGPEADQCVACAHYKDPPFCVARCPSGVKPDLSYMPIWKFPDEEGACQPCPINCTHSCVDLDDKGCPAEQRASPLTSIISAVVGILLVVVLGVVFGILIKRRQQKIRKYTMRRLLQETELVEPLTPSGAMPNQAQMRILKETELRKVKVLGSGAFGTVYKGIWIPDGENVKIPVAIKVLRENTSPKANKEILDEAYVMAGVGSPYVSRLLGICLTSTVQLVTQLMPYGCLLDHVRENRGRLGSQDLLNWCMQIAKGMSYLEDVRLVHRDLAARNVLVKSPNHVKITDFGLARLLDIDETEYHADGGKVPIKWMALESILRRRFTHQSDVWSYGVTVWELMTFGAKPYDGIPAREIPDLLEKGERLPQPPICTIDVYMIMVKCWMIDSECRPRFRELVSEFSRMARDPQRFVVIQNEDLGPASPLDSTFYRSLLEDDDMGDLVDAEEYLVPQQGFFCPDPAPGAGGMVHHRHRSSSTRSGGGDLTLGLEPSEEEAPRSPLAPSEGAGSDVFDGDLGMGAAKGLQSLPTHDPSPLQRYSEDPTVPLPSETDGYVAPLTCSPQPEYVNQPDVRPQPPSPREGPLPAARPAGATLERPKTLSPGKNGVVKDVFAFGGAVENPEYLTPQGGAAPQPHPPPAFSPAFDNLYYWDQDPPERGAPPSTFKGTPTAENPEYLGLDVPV
erbB1^T790M, sequence (P00533 25-1210 T790M): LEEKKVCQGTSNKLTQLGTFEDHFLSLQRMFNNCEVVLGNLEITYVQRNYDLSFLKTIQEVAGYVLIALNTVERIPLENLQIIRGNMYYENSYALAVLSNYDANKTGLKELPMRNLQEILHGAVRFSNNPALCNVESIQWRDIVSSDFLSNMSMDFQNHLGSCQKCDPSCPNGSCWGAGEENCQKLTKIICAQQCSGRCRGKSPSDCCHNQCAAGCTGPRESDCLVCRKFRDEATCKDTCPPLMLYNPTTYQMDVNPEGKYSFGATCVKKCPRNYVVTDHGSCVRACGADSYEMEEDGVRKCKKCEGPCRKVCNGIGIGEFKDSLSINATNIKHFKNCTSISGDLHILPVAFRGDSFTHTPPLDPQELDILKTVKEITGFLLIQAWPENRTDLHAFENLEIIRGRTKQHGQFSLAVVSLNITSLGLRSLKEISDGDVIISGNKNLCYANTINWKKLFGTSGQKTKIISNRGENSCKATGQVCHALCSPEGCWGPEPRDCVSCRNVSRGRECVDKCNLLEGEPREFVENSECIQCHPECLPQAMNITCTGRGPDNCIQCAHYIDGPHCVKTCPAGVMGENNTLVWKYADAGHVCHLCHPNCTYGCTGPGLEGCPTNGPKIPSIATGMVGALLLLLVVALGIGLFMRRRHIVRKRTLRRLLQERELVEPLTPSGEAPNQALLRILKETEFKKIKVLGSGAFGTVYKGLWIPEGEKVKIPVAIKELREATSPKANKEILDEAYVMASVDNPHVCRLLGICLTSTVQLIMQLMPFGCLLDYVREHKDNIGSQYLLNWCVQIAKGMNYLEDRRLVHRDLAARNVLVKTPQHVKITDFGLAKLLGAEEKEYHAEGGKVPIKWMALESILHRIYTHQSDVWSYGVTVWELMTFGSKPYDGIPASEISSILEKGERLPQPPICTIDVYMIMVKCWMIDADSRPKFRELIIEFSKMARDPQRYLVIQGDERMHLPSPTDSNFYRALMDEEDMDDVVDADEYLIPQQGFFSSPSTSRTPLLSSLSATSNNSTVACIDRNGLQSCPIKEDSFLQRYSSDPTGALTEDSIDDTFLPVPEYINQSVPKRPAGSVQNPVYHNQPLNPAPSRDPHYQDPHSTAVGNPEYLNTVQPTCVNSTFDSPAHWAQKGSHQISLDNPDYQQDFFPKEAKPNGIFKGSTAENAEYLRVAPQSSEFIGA
erbB4, sequence (Q15303 26-1308): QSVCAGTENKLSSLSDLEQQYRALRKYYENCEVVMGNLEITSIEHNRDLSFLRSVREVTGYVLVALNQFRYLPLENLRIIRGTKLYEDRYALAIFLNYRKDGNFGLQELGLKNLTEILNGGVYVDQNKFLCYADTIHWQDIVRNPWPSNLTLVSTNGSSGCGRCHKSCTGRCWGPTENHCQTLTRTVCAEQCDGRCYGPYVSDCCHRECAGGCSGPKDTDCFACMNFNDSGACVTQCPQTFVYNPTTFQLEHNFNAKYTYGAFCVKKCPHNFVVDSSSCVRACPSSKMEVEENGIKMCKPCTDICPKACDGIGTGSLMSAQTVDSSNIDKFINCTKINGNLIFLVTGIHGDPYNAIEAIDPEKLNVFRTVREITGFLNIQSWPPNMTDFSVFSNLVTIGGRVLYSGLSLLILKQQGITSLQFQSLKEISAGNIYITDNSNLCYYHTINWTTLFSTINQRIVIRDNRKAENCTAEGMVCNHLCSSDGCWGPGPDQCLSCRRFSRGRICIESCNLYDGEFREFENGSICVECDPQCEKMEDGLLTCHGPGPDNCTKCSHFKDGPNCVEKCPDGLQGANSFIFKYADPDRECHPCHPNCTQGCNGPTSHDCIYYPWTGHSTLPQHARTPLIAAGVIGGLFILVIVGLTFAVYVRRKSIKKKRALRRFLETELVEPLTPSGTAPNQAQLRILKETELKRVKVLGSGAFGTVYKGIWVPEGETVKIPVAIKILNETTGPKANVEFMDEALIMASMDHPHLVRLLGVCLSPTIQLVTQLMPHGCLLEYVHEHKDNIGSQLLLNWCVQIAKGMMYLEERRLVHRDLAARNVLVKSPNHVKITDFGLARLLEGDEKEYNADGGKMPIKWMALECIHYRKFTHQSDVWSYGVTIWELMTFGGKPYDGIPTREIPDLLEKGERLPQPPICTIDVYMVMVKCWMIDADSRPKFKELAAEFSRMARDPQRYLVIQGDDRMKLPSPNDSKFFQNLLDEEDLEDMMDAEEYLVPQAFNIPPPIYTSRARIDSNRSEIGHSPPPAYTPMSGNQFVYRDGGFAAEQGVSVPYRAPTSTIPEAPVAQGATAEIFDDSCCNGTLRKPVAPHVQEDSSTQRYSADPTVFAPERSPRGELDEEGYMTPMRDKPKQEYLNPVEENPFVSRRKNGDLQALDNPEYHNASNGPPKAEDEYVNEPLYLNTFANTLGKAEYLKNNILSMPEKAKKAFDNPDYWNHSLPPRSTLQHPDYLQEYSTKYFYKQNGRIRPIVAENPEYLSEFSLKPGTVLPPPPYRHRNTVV
Description for SW620 cells: Human A431, BT474, SKBR3, SKOV3, SW620, H1975 and HT29 carcinoma cells in log phase exponential growth in alpha minimal essential media (αMEM) containing 5% fetal bovine serum (FBS), were harvested by trypsinisation (1× trypsin/EDTA, Gibco Brl), counted, and seeded into 96 well plates (Nunc) at cell densities ranging from 800-1500 cells/well. Half of the cell samples were seeded into plates that were pre-equilibrated and held in an anoxic environment (90% N2, 5% H2, 5% CO2, 37° Q Anaerobic chamber, Coy Laboratory Products). […] At the end of this period the anoxic plates were recovered from the anaerobic camber and held under normoxia in a standard CO2 incubator (37° C.) for 20 hours. All plates were washed free of compound and cells were allowed to proliferate for a further 4 days in αMEM containing 5% FBS+antibiotics. Cells were fixed in trichloroacteic acid (30 min), washed and stained with sulforhodamine B (SRB, 60 min) prior to washing in acidified water. SRB was solubilised and absorption read at 450 nm to calculate cell densities. Inhibition of proliferation was calculated relative to untreated control wells.

With `Cn1cc([N+](=O)[O-])nc1C[N+](C)(C)C/C=C/C(=O)Nc1ccc2ncnc(Nc3cccc(Br)c3)c2c1` [Compound 21, (2E)-4-{[4-(3-bromoanilino)-6-quinazolinyl]amino}-N,N-dimethyl-N-[(1-methyl-4-nitro-1H-imidazol-2-yl)methyl]-4-oxo-2-buten-1-ammonium bromide], the IC50 at erbB1 [1] stood at 0.53 nM; against erbB1^T790M it was 531 nM; at erbB2 [2], 128 nM; at erbB4, 76 nM; in the series on SKBR3 cells (Homo sapiens, SK-BR-3, 24 hour exposure entirely oxic, read-out: Cellular Growth Inhibition IC50 SKBR3 Oxic), 26900 nM; in the series on SKBR3 cells (Homo sapiens, SK-BR-3, first 4 hours anoxic, read-out: Cellular Growth Inhibition IC50 SKBR3 Anoxic) it was 30000 nM. For the same compound, the IC50 is 423000 nM in the series with SW620 cells (Homo sapiens, SW-620, 24 hour exposure entirely oxic, read-out: Cellular Growth Inhibition IC50 SW620 Oxic); 365000 nM in the series with SW620 cells (Homo sapiens, SW-620, first 4 hours anoxic, read-out: Cellular Growth Inhibition IC50 SW620 Anoxic); 11000 nM in the series with A431 cells (setting [10]); 13700 nM in the series with A431 cells (Homo sapiens, A-431, read-out: Cellular Growth Inhibition IC50 A431 Anoxic); 1190 nM on erbB1 [6]. Further, on erbB1 [3], the “hypoxia-selective inhibition of p-erbB1” value was “no apparent hypoxia-selective inhibition”. Further, the “SKBR3 Deact.” value with SKBR3 cells was 332 fold. The “SKBR3 HCR” value in the series on SKBR3 cells is reported as 0.9 fold. The “SW620 Deact.” value with SW620 cells is reported as 123 fold. Also, the “SW620 HCR” value in the series with SW620 cells was 1.2 fold. In series [4], the “Effector release/Prodrug loss” value turned out to be 0.30. Besides, the “Detection of MNA (methyl nitroaromatic)” value in series [4] is listed as “No”. In addition, the “% Loss of prodrug” value in series [4] came to 33%. The “% Release of effector” value in series [4] was 10%. For the same compound, in series [4], the “release of effector following 1-electron reduction” value is on record as “not observed”. In series [5], the “E (1)/V (one-electron reduction potential)” value was −0.468 V. In addition, the “tumour growth inhibition (TGI)” value in the series with A431 xenografts was 10%. For the same compound, in the series on A431 cells (Table 3), the “A431 Deact. (fold reduction in oxic growth inhibition relative to parent kinase inhibitor)” value was 277 fold. Further, the “A431 HCR (Hypoxic Cytotoxicity Ratio)” value in the series with A431 cells (Table 3) worked out at 1.3 fold. In addition, the “Deact. (fold reduction in cellular erbB1 inhibition relative to the parent kinase inhibitor)” value on erbB1 [6] (Table 2, A431 cells) is 130 fold.

Turning to `CN(C)C/C=C/C(=O)Nc1cc2c(Nc3ccc(F)c(Br)c3)ncnc2cn1` [Compound 161, (2E)-N-[4-(3-bromo-4-fluoroanilino)pyrido[3,4-d]pyrimidin-6-yl]-4-(dimethylamino)-2-butenamide], the IC50 in the series on H1975 cells (24 hour exposure oxic, read-out: Cellular Growth Inhibition IC50 H1975 Oxic) is 1260 nM; with H1975 cells (first 4 hours anoxic, read-out: Cellular Growth Inhibition IC50 H1975 Anoxic), 1400 nM; in the series with SKOV3 cells (24 hour exposure oxic, read-out: Cellular Growth Inhibition IC50 SKOV3 Oxic) it was 840 nM; in the series on SKOV3 cells (first 4 hours anoxic, read-out: Cellular Growth Inhibition IC50 SKOV3 Anoxic), 1310 nM; in the series with A431 cells (Homo sapiens, A-431, 4 h, read-out: Cellular Growth Inhibition IC50 A431 Anoxic), 28 nM; with A431 cells (setting [10]), 30 nM. For the same compound, the IC50 at erbB2 [8] was determined as 6 nM; against erbB1 [6], 5 nM. In addition, the “H1975 HCR” value with H1975 cells stood at 0.9 fold. The “SKOV3 HCR” value in the series with SKOV3 cells is recorded as 0.8 fold. Also, the deaths with SKOV3 xenografts is reported as 1/7. For the same compound, the “tumour growth inhibition (TGI)” value with H1975 xenografts is on record as 100%. The “A431 HCR” value in the series with A431 cells (Table 9) is recorded as 1.6 fold. In [7] (female, NIH-III, mouse, plasma, ip, 31.6 umol/kg), the AUC was found to be 8 µM·h. Moreover, the “tumour AUC0-inf” value in series [7] (inhibitor 161 dosed directly at 31.6 umol/kg ip, A431 tumour) worked out at 49 µmol·h/kg. In addition, the “erbB1 autophosphorylation, cells not washed free of drug” value at erbB1 [9] is recorded as “completely inhibited”.

On to `Cn1c(C[N+](C)(C)C/C=C/C(=O)Nc2ccc3ncnc(Nc4cccc(Br)c4)c3c2)ccc1[N+](=O)[O-].[Br-]` [Compound 19, (2E)-4-{[4-(3-bromoanilino)-6-quinazolinyl]amino}-N,N-dimethyl-N-[(1-methyl-5-nitro-1H-pyrrol-2-yl)methyl]-4-oxo-2-buten-1-ammonium bromide], for which the IC50 stood at 0.4 nM at erbB1 [1]; 451 nM on erbB1^T790M; 113 nM against erbB2 [2]; 61 nM at erbB4; 6330 nM with SKBR3 cells (24 hour exposure entirely oxic, read-out: Cellular Growth Inhibition IC50 SKBR3 Oxic); 483 nM in the series with SKBR3 cells (first 4 hours anoxic, read-out: Cellular Growth Inhibition IC50 SKBR3 Anoxic). Further, the IC50 with SW620 cells (24 hour exposure entirely oxic, read-out: Cellular Growth Inhibition IC50 SW620 Oxic) was 156000 nM; with SW620 cells (first 4 hours anoxic, read-out: Cellular Growth Inhibition IC50 SW620 Anoxic), 28000 nM; with A431 cells (read-out: Cellular Growth Inhibition IC50 A431 Anoxic, Table 3, first 4 hours of 24 hour exposure anoxic), 201 nM; with A431 cells (read-out: Cellular Growth Inhibition IC50 A431 Oxic, Table 3, 24 hour exposure entirely oxic) it was 2640 nM; on erbB1 [6] (read-out: Cellular Enzyme Inhibition IC50 erbB1, Table 2, intact A431 cells, EGF-stimulated, average of two determinations) it was 962 nM. Besides, in the series on SKBR3 cells, the “SKBR3 Deact.” value is 78 fold. In the series with SW620 cells, the “SW620 Deact.” value is 46 fold. Moreover, the “SW620 HCR” value in the series with SW620 cells is 5.6 fold. Besides, in [4], the “Effector release/Prodrug loss” value stood at 0.73. The “Detection of MNA (methyl nitroaromatic)” value in series [4] is reported as “No”. Moreover, in series [4], the “% Loss of prodrug” value is 63%. The “% Release of effector” value in [4] worked out at 46%. The “release of effector following 1-electron reduction” value in series [4] is “released effector (compound 11) detected”. Also, the “kfrag. (fragmentation rate constant upon 1-electron reduction)” value in [5] (benzyl-type radical formation) is 90 ± 10 s⁻¹. Further, the “E (1)/V (one-electron reduction potential)” value in [5] is given as −0.493 V. Also, in the series on A431 xenografts, the “tumour growth inhibition (TGI)” value was 120%.

As usually defined, the IC50 is the midpoint of a concentration-inhibition curve. A word on the AUC: it is the area under the concentration-time curve, a measure of exposure.
